This series in a line: wn = mass fraction of the nth substance listed. The conditions noted are these: 288.15 K, 100 kPa, Liquid, Pycnometric method.

± gives the expanded uncertainty stated by the source.

In general, mass density refers to mass per unit of volume. Regarding `O=P([O-])(O)O.[K+]` [monopotassium phosphate] + O, the mass density (w1 = 0.1653) was found to be 1122.9 ± 2.6 kg/m3.

For `[Cl-].[K+]` [potassium chloride] + O, the mass density (w1 = 0.2472) was found to be 1168.2 ± 2.9 kg/m3.

Take `O=S(=O)([O-])[O-].[K+].[K+]` [potassium sulfate] + O: the mass density (w1 = 0.0912) came out at 1075.6 ± 2.4 kg/m3.
